The source of these data is patent publication US12023335B2, “Method for treating pancreatic cancer” (PTC THERAPEUTICS, INC., priority 2018, dated 2024).

For assay [1], the system named is J1002VEH and J1002TAM cells. As to the kind of experiment: Viability and dose response of J1002VEH and J1002TAM cells (AlamarBlue). The assay is classed as cell-based, mouse. The procedure: For proliferation curves, cells were plated in 96-well plates (Corning, 3603) and allowed to seed overnight. Replicate plates were plated for each time point since viability measurements were an endpoint procedure. The following day, cells were treated with Compound at indicated concentrations and treated with DMSO at the highest used concentration (always below 0.003%). Cells were treated for 96 hours, and viability was determined every 24 hours using AlamarBlue reagent (BioRad, BUF012B). Briefly, 10 μL of AlamarBlue was added to each well (100 μL), mixed briefly, and allowed to incubate at 37° C. and 5% CO2 for 4 hours. Following incubation, fluorescence was measured on a Promega multimode microplate reader. For analysis, background levels were subtracted from raw results, which were then normalized to be represented as a fold change compared to DMSO-treated cells on Day 0. All assays were carried out in at least triplicate with 4-8 technical replicates per treatment group, per experiment. (FIG. 1a and FIG. 10b)
For dose response curves, cells were plated in 96-well plates (Corning, 3603) and allowed to seed overnight. The following day, cells were treated with Compound 1. […] Cells were treated for 72 hours and then viability was determined using AlamarBlue reagent (BioRad, BUF012B). […] Following incubation, fluorescence was measured on a Promega multimode microplate reader. […]
Background: The colour change of resazurin is a common sign of viable cells or microbes.

In assay [2] the test system is PDA tumors in KPC mice. As to the kind of experiment: KPC intervention/survival study. The assay is classed as in vivo. The note with it: KPC mice (FIGS. 7a, 7b). The procedure: Tumor formation in KPC mice was monitored by weekly palpation until the detection of a mass. Upon positive palpation, the mass was monitored by twice weekly ultrasound until the tumor reached an enrollable size of 4-7 mm average diameter. Once enrollable, KPC mice were randomly enrolled into a treatment arm of the intervention study. Mice were treated with vehicle, Compound 1 (17 mg/kg, PO, b.i.w.), gemcitabine alone (100 mg/kg, IP, b.i.w.), or Compound 1+gemcitabine. Mice receiving Compound 1 also received gemcitabine vehicle (saline, IP, b.i.w.) at a volume (μL) of 50× body weight (g). Mice receiving gemcitabine also received Compound 1 vehicle (0.5% hydroxypropylmethylcellulose with 0.1% Tween80 (w/v), PO, b.i.w.) at a volume (μL) of 5.7× body weight (g). All drug and vehicle combinations were administered simultaneously.
Tumor ultrasonography and volume quantification were carried out as described in Sastra S A, Olive K P, Quantification of murine pancreatic tumors by high-resolution ultrasound, Methods Mol Biol 2013; 980:249-66. […]
To prepare samples for immunohistochemistry, tissues were first fixed overnight in 10% phosphate-buffered formalin and then stored in 70% ethanol for long-term storage. […] Next, antigen retrieval was carried out in an experimentally determined, antibody-specific antigen retrieval buffer (usually 10 mM citrate, pH 6.0 or 10 mM Tris, pH 10.0). […]

Assay [3] has as its system CYCLIN B1. Briefly: Western blot for CYCLIN B1 on tumors from KPC mice. In kind it is in vivo. The note with it: 10 mg/kg; biopsy 48 hours before first dose vs necropsy 24 hours after third dose (FIGS. 5b, 5c). The procedure:
Western blotting was carried out on lysates isolated from treated cells. Cells were lysed using RIPA buffer (50 mM Tris, pH 7.4, 150 mM NaCl, 1% Nonidet P-40, 0.1% SDS, 0.5% deoxycholate) supplemented with cOmplete™ EDTA-free Protease Inhibitor Cocktail (Sigma, 11836170001) and Halt™ Phosphatase Inhibitor Cocktail (ThermoFisher, 78420). Lysates were quantified using the Pierce BCA Protein Assay Kit (ThermoFisher, 23227), diluted in SDS sample buffer, resolved by SDS-PAGE (15-30 μg/sample), and transferred onto PVDF membranes. Membranes were blocked with 5% w/v nonfat dry milk in TBS-T (0.1% Tween20) and primary antibodies were incubated overnight at 4° C., diluted in 5% BSA in TBS-T at the indicated concentrations. HRP-conjugated secondary antibodies were incubated in blocking buffer for 1 hour at room temperature before detection using Super Digital-ECL™ substrate solution (Kindle Biosciences, R1002). (FIG. 5b, FIG. 10a and FIG. 11b)

For `Cc1nc2ccc(F)cc2n1-c1nc(N)c(F)c(Nc2ccc(C(F)(F)F)cc2)n1` [Compound 1, 5-fluoro-2-(6-fluoro-2-methyl-1H-benzo[d]imidazol-1-yl)-N4-[4-(trifluoromethyl)phenyl]pyrimidine-4,6-diamine], the “relative viability of J1002VEH and J1002TAM cells” value in assay [1] (0.1 μM or 1.0 μM over 96 hours (FIG. 10b)) is “dose and time-dependent decrease in viability of cells dependent on BMI-1 protein expression”. The “dose response in J1002VEH and J1002TAM cells” value in assay [1] (72 hours (FIG. 10c)) is “sub-M activity toward reduction in BMI-1 protein expression”. In addition, in assay [2], the “tumor volumes by high resolution 3D ultrasound” value is reported as “time-dependent decrease in KPC mouse model PDA tumor volume”. Further, the “CYCLIN B1 normalized to VINCULIN in tumors” value in assay [3] is on record as “consistent reduction in Cyclin B1 relative to Vinculin”.
